According to BindingDB's records for patent US12084420 (Volastra Therapeutics, 2024):

Target: T1, Kinesin-like protein KIF18A (Homo sapiens, UniProt Q8NI77)
T1 sequence (Q8NI77 whole entry): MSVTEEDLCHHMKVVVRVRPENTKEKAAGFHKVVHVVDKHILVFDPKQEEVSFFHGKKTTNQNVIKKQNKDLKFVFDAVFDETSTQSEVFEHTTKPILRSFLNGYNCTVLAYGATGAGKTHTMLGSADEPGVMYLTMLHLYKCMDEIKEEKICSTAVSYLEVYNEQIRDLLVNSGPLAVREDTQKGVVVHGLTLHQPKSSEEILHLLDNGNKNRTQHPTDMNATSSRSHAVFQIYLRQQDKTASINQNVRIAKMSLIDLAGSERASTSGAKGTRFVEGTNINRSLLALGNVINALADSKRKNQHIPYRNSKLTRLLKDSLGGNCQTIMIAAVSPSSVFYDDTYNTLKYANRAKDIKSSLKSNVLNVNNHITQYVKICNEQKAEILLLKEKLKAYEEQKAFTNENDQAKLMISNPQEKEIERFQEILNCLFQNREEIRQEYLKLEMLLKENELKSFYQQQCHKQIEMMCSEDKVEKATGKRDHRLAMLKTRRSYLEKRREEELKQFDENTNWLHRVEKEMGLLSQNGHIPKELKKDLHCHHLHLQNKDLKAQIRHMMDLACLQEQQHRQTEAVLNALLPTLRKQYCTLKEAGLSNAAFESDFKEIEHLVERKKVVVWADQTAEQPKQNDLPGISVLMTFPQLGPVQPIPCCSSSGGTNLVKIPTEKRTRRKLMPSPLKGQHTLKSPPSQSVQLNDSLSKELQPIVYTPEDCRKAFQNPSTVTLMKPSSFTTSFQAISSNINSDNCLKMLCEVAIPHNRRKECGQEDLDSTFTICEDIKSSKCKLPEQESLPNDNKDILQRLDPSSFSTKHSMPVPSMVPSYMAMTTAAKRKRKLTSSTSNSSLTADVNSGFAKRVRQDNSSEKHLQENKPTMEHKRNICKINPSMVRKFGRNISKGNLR
Assay: Inhibition of KIF18A Microtubule-Dependent ATPase Activity
Method: Table 9: Test compounds were plated in a 3× dilution scheme in a 384-well plate. […] After incubation at room temperature for 30 min, 2.5 μL of microtubule mix was added [0.2 mg/mL pre-formed microtubules, 2.0 mM ATP in assay buffer], the plate was centrifuged for 30 s and then incubated at 28° C. for 60 min. 5 μL of Promega ADP-Glo Max R1 was added, the plate was centrifuged for 30 s, and the mixture incubated for 4 h at room temperature. 10 μL of Promega ADP-Glo Max R2 was added, the plate centrifuged for 30 s, and incubated for 60 min at room temperature. Luminescence was measured with an Envision plate reader, and % Inhibition was calculated for each well as: ([max−min]−[test−min])/[max−min]. IC50 values were calculated from concentration vs. % Inhibition data via a four-parameter variable slope model.

SMILES | IC50 [nM]
O=C(c1cccc(S(=O)(=O)N2CCC(F)(F)CC2)c1)N1CC2(CCCC2)c2cc(NS(=O)(=O)CCO)ccc21 [US12084420, Compound 27] | 83
Cn1nc(S(=O)(=O)NC(C)(C)C)cc1C(=O)N1CC2(CCCCC2)c2cc(NS(C)(=O)=O)ccc21 [US12084420, Compound 59] | 1000
CC(C)(C)NS(=O)(=O)c1csc(C(=O)N2CC3(CCCCC3)c3cc(NS(C)(=O)=O)ccc32)c1 [US12084420, Compound 147] | 43
CC(C)(CO)NS(=O)(=O)c1cccc(C(=O)N2CC3(CCC4(CC4)CC3)c3cc(NS(C)(=O)=O)ccc32)c1 [US12084420, Compound 220] | 16
CC(C)(C)NS(=O)(=O)c1cc(C(=O)N2CC3(CCCCC3)c3cc(NS(C)(=O)=O)ccc32)cs1 [US12084420, Compound 231] | 8.7
C=C1CCC1NS(=O)(=O)c1cccc(C(=O)N2CC3(CCC4(CC4)CC3)c3cc(NS(C)(=O)=O)ccc32)c1 (configuration not stated) [US12084420, Compound 233] | 12
CS(=O)(=O)Nc1ccc2c(c1)C1(CCC3(CC3)CC1)CN2C(=O)c1cccc(S(=O)(=O)N2CCC(C(F)F)C2)c1 (configuration not stated) [US12084420, Compound 247] | 21
CS(=O)(=O)Nc1ccc2c(c1)C1(CCC3(CC3)CC1)CN2C(=O)c1cccc(S(=O)(=O)NC2CC3CC3C2)c1 (configuration not stated) [US12084420, Compound 254] | 10
CCC(C)(C)NS(=O)(=O)c1cccc(C(=O)N2CC3(CCC4(CC4)CC3)c3cc(NS(C)(=O)=O)ccc32)c1 [US12084420, Compound 266] | 16
CS(=O)(=O)Nc1ccc2c(c1)C1(CCC3(CC3)CC1)CN2C(=O)c1cccc(/C=N/N2CCCCC2)c1 [US12084420, Compound 318] | 930
CC(C)(C)NS(=O)(=O)c1cc(C(=O)N2CC3(CCC4(CC4)CC3)c3cc(NS(C)(=O)=O)ccc32)co1 [US12084420, Compound 319] | 1200
CC(C)(C)NS(=O)(=O)c1cccc(C(=O)N2CC3(CCC4(CC4)CC3)c3cc(NS(=O)(=O)CCF)ccc32)c1 [US12084420, Compound 365] | 13
